Data set [1] concerns rats. The data set is described as follows: Study 5: 1H/19F NMR correlation study of urine from rats dosed with 3-fluoroaniline. The conditions noted are these: 50 mg/kg, negative covariance with 19F δ-128.4 resonance. Type of data set: in vivo, rat. The protocol:
A number of rats were dosed with 3-fluoroaniline (3-FA) at 50 mg/kg. Urine samples were collected over dry ice (i) pre-dose, (ii) after 0-24 hours, and (iii) after 24-48 hours. ^1H NMR and ^1H-decoupled ^19F NMR spectra were collected. The collection of ^1H NMR spectra was treated as a first data set (i.e., a matrix with one row for each ^1H NMR spectrum, and one column for each ^1H NMR chemical shift variable, n x p) and the collection of ^19F-NMR spectra was treated as a second data set (i.e., a matrix with one row for each ^19F NMR spectrum, and one column for each ^19F NMR chemical shift variable, n×q). The correlation matrix and the covariance matrix (each p×q or q×p) were calculated.
This resonance was selected for the correlation study.
As mentioned above, the correlation matrix and the covariance matrix (each p×q or q×p) were calculated. The correlation between the selected variable (^19F δ-128.4) of the first data set and all of the variables of the second data set (i.e., the range of ^1H δ) is given in the column/row of the correlation matrix associated with this variable (i.e., the column/row for ^19F δ-128.4). The covariance between this variable (^19F δ-128.4) and all of the variables of the second data set (i.e., the range of ^1H δ) is given in the column/row of the covariance matrix associated with this variable (i.e., the column/row for ^19F δ-128.4). […]

In data set [2] the test system is rats. As to conditions: hydrazine poisoning; stated as well known; cited from earlier work.
The subject of data set [3] is rats. The data set can be described thus: Study 7: 1H NMR / UPLC-MS correlation study of urine from rats dosed with hydrazine. As to conditions: hydrazine poisoning. The data set is classed as in vivo, rat. The protocol:
A number of rats were dosed with hydrazine. Urine samples were collected. ^1H NMR and mass spectra were recorded for each sample. (Note that the mass spectra were recorded using an UPLC-MS experiment, in which individual mass spectra are recorded as function of elution time, here over a period of six minutes with a water-acetonitrile gradient; however, for the present study, these spectra were “summed” in order to present a single mass spectrum for each sample. This gives, in effect, “virtual direct injection mass spectra.” This is a known approach for improving MS detection in complex mixtures.)
The collection of ^1H NMR spectra was treated as a first data set (i.e., a matrix with one row for each ^1H NMR spectrum, and one column for each ^1H NMR chemical shift variable, n×p) and the collection of mass spectra was treated as a second data set (i.e., a matrix with one row for each mass spectrum, and one column for each m/z variable, n×q). The correlation matrix and the covariance matrix (each p×q or q×p) were calculated. A correlation map illustrating a part of the correlation matrix, as a function of both ^1H chemical shift (from about δ 2 to about δ 4.5) and m/z (from about 100 to about 350), is shown in FIG. 21. The correlation is indicated by colour (blue is negative correlation and red is positive correlation). A “summed” ^1H NMR spectrum is shown alongside the ^1H δ axis for illustration. Similarly, a “summed” mass spectrum is shown alongside the m/z axis for illustration.
A correlation map illustrating another (very small) part of the correlation matrix is shown in FIG. 22, specifically for ^1H chemical shift from about δ 8.8 to about δ 9.3 and m/z from about 80 to about 200. Again, a “summed” ^1H NMR spectrum is shown alongside the ^1H δ axis for illustration. Similarly, a “summed” mass spectrum is shown alongside the m/z axis for illustration. […] As expected, the mass spectrum peak at m/z 138 (for NMNA) is highly correlated with the ^1H NMR peaks at about δ 9.12 about δ 8.84 (also for NMNA). […]

For `Nc1cccc(F)c1` [3-fluoroaniline], the “effect on endogenous hippurate level in urine” value in the data set with rats [1] is given as “reduces the amount of hippurate”.
As to `NN` [hydrazine], in the data set on rats [2], the “change in N-methylnicotinamide (NMND)” value is “increase” and the “change in N-methylnicotinic acid (NMNA)” value is reported as “decrease”. Besides, the “change in urinary creatine” value in the data set on rats [3] (m/z 90, 116) is listed as “increased”. Moreover, the “change in urinary 2-aminoadipate” value in the data set on rats [3] (m/z 98, 116) is “increased”. Further, in the data set with rats [3] (m/z 105, 180), the “change in urinary hippurate” value is on record as “decreased”.

The values above are taken from patent US7373256B2, “Method for the identification of molecules and biomarkers using chemical, biochemical and biological data” (priority 2005, dated 2008).
